Results on 34 compounds are retold here after US8232308B2, “Methods for treating a disease in which Rho kinase is involved” (UBE Industries, Ltd., priority 2003, dated 2012).

The structures appear in SMILES notation. Where a name gives a salt, the structure may show the parent alone.

The term melting point denotes the temperature of the solid-liquid transition. Take `CC(C)(N)c1ccc(-c2ccc3[nH]nc(N)c3c2)cc1` (as salt: hydrochloride) [Compound 5-11, 3-Amino-5-[4-(1-amino-1-methylethyl)phenyl]-1H-indazole trihydrochloride]: the melting point is 220 to 222 °C (dec.).
Take `CC(C)(N)c1ccc(-c2ccc3[nH]nc(C#N)c3c2)cc1` (as salt: hydrochloride) [Compound 5-13, 5-[4-(1-Amino-1-methylethyl)phenyl]-3-cyano-1H-indazole dihydrochloride]: the melting point is 224 to 227 °C (dec.).
With `CC(C)(N)c1ccc(-c2ccc3[nH]nc(CO)c3c2)cc1` (as salt: hydrochloride) [Compound 5-14, 5-[4-(1-Amino-1-methylethyl)phenyl]-3-hydroxymethyl-1H-indazole dihydrochloride], the melting point is 238 to 242 °C (dec.).
As for `CN(C)c1c(-c2ccc(C(C)(C)N)cc2)ccc2[nH]ncc12` (as salt: hydrochloride) [Compound 5-16, 5-[4-(1-Amino-1-methylethyl)phenyl]-4-dimethylamino-1H-indazole trihydrochloride], the figure is 219 to 224 °C (dec.).
The compound `CC(=O)Nc1c(-c2ccc(C(C)(C)N)cc2)ccc2[nH]ncc12` (as salt: hydrochloride) [Compound 5-18, 4-(N-Acetylamino)-5-[4-(1-amino-1-methylethyl)-phenyl]-1H-indazole dihydrochloride] had a melting point of 218 to 221 °C.
As for `NCc1ccc(-c2ccc3[nH]ncc3c2[N+](=O)[O-])cc1` (as salt: hydrochloride) [Compound 5-19, 5-[4-(Aminomethyl)phenyl]-4-nitro-1H-indazole dihydrochloride], the figure is 269 to 274 °C (dec.); as for `Nc1c(-c2ccc(C3(N)CCCC3)cc2)ccc2[nH]ncc12` (as salt: hydrochloride) [Compound 5-21, 4-Amino-5-[4-(1-aminocyclopentyl)phenyl]-1H-indazole dihydrochloride], 234 to 237 °C; as for `CCC(N)(CC)c1ccc(-c2ccc3[nH]ncc3c2N)cc1` (as salt: hydrochloride) [Compound 5-22, 4-Araino-5-[4-(1-amino-1-ethylpropyl)phenyl]-1H-indazole trihydrochloride], 197 to 199 °C (dec.).
`CN(C)c1c(-c2ccc(CN)cc2)ccc2[nH]ncc12` (as salt: hydrochloride) [Compound 5-23, 5-[4-(Aminomethyl)phenyl]-4-dimethylamino-1H-indazole trihydrochloride]: the melting point is 188 to 192 °C (dec.).
With `CN(C)c1c(-c2ccc(C3(N)CCCC3)cc2)ccc2[nH]ncc12` (as salt: hydrochloride) [Compound 5-24, 5-[4-(1-Aminocyclopentyl)phenyl]-4-dimethylamino-1H-indazole trihydrochloride], the melting point was 175 to 178 °C (dec.).
As for `CC(N)c1ccc(-c2ccc3[nH]ncc3c2N(C)C)cc1` (stereo not shown) (as salt: hydrochloride) [Compound 5-26, 5-[4-(1-Aminoethyl)phenyl]-4-dimethylamino-1H-indazole trihydrochloride], the figure is 180 to 182 °C (dec.).
As for `CC(C)(N)c1cnc(-c2ccc3[nH]ncc3c2)c(Cl)c1` (as salt: hydrochloride) [Compound 5-27, 5-[5-(1-Amino-1-methylethyl)-3-chloropyridin-2-yl]-1H-indazole trihydrochloride], the figure is 179 to 182 °C.
As for `CCc1c(-c2ccc(C(C)(C)N)cn2)ccc2[nH]ncc12` (as salt: hydrochloride) [Compound 5-28, 5-[5-(1-Amino-1-methylethyl)pyridin-2-yl]-4-ethyl-1H-indazole trihydrochloride], the figure is 247 to 255 °C (dec.); as for `CC(C)(N)c1ccc(-c2ccc3[nH]ncc3c2C2CC2)nc1` (as salt: hydrochloride) [Compound 5-29, 5-[5-(1-Amino-1-methylethyl)pyridin-2-yl]-4-cyclo-propyl-1H-indazole trihydrochloride], 209 to 213 °C (dec.); as for `C=Cc1c(-c2ccc(C(C)(C)N)cn2)ccc2[nH]ncc12` (as salt: hydrochloride) [Compound 5-30, 5-[5-(1-Amino-1-methylethyl)pyridin-2-yl]-4-vinyl-1H-indazole trihydrochloride], 162 to 166 °C (dec.).
As for `CCN(CC)c1c(-c2ccc(C(C)(C)N)cc2)ccc2[nH]ncc12` (as salt: hydrochloride) [Compound 5-31, 5-[4-(1-Amino-1-methylethyl)phenyl]-4-diethylamino-1H-indazole trihydrochloride], the melting point was 182 to 184 °C (dec.).
As for `CC(C)(N)c1ccc(-c2ccc3[nH]ncc3c2CCO)cc1` (as salt: hydrochloride) [Compound 5-32, 5-[4-(1-Amino-1-methylethyl)phenyl]-4-(2-hydroxy-ethyl)-1H-indazole dihydrochloride], the figure is 202 to 203 °C (dec.); as for `CC(C)(N)c1ccc(-c2ccc3[nH]ncc3c2C#N)cc1` (as salt: hydrochloride) [Compound 5-36, 5-[4-(1-Amino-1-methylethyl)phenyl]-4-cyano-1H-indazole monohydrochloride], 270 to 272 °C.
`CC(C)(N)c1ccc(-c2ccc3cn[nH]c3c2)cc1` (as salt: hydrochloride) [Compound 5-37, 6-[4-(1-Amino-1-methylethyl)phenyl]-1H-indazole dihydrochloride] registered a melting point of 265 to 269 °C.
As for `CC(=O)n1ncc2ccc(-c3ccc(C(C)(C)N)cc3)cc21` (as salt: hydrochloride) [Compound 5-38, 1-Acetyl-6-[4-(1-amino-1-methylethyl)phenyl]-1H-indazole dihydrochloride], the figure is 225 to 230 °C.
As for `CC(C)(N)c1ccc(-c2ccc3[nH]ncc3c2-n2cccc2)cc1` (as salt: hydrochloride) [Compound 5-39, 5-[4-(1-Amino-1-methylethyl)phenyl]-4-(pyrrol-1-yl)-1H-indazole dihydrochloride], the figure is 244 to 247 °C (dec.); as for `CC(C)Oc1c(-c2ccc(C(C)(C)N)cc2)ccc2[nH]ncc12` (as salt: hydrochloride) [Compound 5-40, 5-[4-(1-Amino-1-methylethyl)phenyl]-4-isopropoxy-1H-indazole dihydrochloride], 242 to 246 °C (dec.).
As for `CC(C)(N)c1ccc(-c2ccc3[nH]ncc3c2N2CCCCC2)cc1` (as salt: hydrochloride) [Compound 5-41, 5-[4-(1-Amino-1-methylethyl)phenyl]-4-(piperidin-1-yl)-1H-indazole trihydrochloride], the figure is 205 to 208 °C (dec.); as for `CC(C)(N)c1ccc(-c2ccc3[nH]ncc3c2N2CCCC2)cc1` (as salt: hydrochloride) [Compound 5-42, 5-[4-(1-Amino-1-methylethyl)phenyl]-4-(pyrrolidin-1-yl)-1H-indazole trihydrochloride], 218 to 224 °C (dec.).
`CC(C)(N)c1ccc(-c2ccc3[nH]ncc3c2N2CCOCC2)cc1` (as salt: hydrochloride) [Compound 5-43, 5-[4-(1-Amino-1-methylethyl)phenyl]-4-(morpholin-4-yl)-1H-indazole trihydrochloride]: the melting point is 268 to 272 °C (dec.).
As for `COc1c(-c2ccc(C(C)(C)N)cc2)ccc2[nH]ncc12` (as salt: hydrochloride) [Compound 5-44, 5-[4-(1-Amino-1-methylethyl)phenyl]-4-methoxy-1H-indazole dihydrochloride], the figure is 258 to 261 °C (dec.); as for `COc1c(-c2ccc(C(C)(C)N)cn2)ccc2[nH]ncc12` (as salt: hydrochloride) [Compound 5-45, 5-[5-(1-Amino-1-methylethyl)pyridin-2-yl]-4-methoxy-1H-indazole trihydrochloride], 195 to 201 °C (dec.); as for `COc1c(-c2ccc(C3(N)CCCC3)cn2)ccc2[nH]ncc12` (as salt: hydrochloride) [Compound 5-46, 5-[5-(1-Aminocyclopentyl)pyridin-2-yl]-4-methoxy-1H-indazole trihydrochloride], 195 to 203 °C (dec.).
As for `CCOc1c(-c2ccc(C(C)(C)N)cn2)ccc2[nH]ncc12` (as salt: hydrochloride) [Compound 5-47, 5-[5-(1-Amino-1-methylethyl)pyridin-2-yl]-4-ethoxy-1H-indazole trihydrochloride], the figure is 198 to 201 °C.
As for `CC(C)(N)c1ccc(-c2ccc3[nH]ncc3c2O)cc1` (as salt: hydrochloride) [Compound 5-48, 5-[4-(1-Amino-1-methylethyl)phenyl]-4-hydroxy-1H-indazole dihydrochloride], the figure is 194 to 198 °C (dec.).
Turning to `CCOc1c(-c2ccc(C(C)(C)N)cc2)ccc2[nH]ncc12` (as salt: hydrochloride) [Compound 5-49, 5-[4-(1-Amino-1-methylethyl)phenyl]-4-ethoxy-1H-indazole dihydrochloride], the melting point is 248 to 256 °C (dec.).
As for `CC(C)Oc1c(-c2ccc(C(C)(C)N)cn2)ccc2[nH]ncc12` (as salt: hydrochloride) [Compound 5-50, 5-[5-(1-Amino-1-methylethyl)pyridin-2-yl]-4-isopropoxy-1H-indazole trihydrochloride], the figure is 211 to 213 °C (dec.); as for `CCC(N)(CC)c1ccc(-c2ccc3[nH]ncc3c2OC)nc1` (as salt: hydrochloride) [Compound 5-51, 5-[5-(1-Amino-1-ethylpropyl)pyridin-2-yl]-4-methoxy-1H-indazole trihydrochloride], 204 to 206 °C (dec.).
As for `CCCOc1c(-c2ccc(C(C)(C)N)cc2)ccc2[nH]ncc12` (as salt: hydrochloride) [Compound 5-52, 5-[4-(1-Amino-1-methylethyl)phenyl]-4-n-propoxy-1H-indazole dihydrochloride], the figure is 237 to 243 °C (dec.).
